The nature of data set [1]: Effect on SDH activity in Sprague-Dawley rat hepatocyte mitochondria at 10 to 40 uM incubated for 40 mins by MTT assay. The format is ADME. The conditions noted are these: hepatocytes. Background: Formazan colour is commonly taken as a measure of viable cells.
Data set [2] is described as follows: Induction of ROS production in Sprague-Dawley rat hepatocyte mitochondria at 10 to 40 uM incubated upto 60 mins by DCFH probe based fluorescence spectrophotometry. The conditions noted are these: hepatocytes, 1 h.
Data set [3] in a line: Induction of mitochondrial membrane potential disruption in Sprague-Dawley rat hepatocyte assessed as collapsed mitochondrial membrane potential at 10 to 40 uM incubated upto 60 mins by Rhodamine 123 probe based fluorescence spectrophotometry. The conditions noted are these: hepatocytes, 1 h.
The subject of data set [4] is Hepatocyte. Description: Induction of apoptosis in isolated HCC model Sprague-Dawley rat hepatocytes assessed as increase in caspase 3 activity at 12 uM relative to control. The format is functional.
The species named for data set [5] is Rattus norvegicus. Description: Induction of mitochondrial swelling in HCC model Sprague-Dawley rat hepatocyte at 10 to 40 uM. The data set is classed as functional.
The test system of data set [6] is Hepatocyte. Description: Induction of apoptosis in isolated HCC model Sprague-Dawley rat hepatocytes assessed as increase in cytochrome C release at 20 uM in presence of CsA by ELISA. The format is functional, cell-based.
The test system of data set [7] is Hepatocyte. Put plainly: Induction of apoptosis in isolated HCC model Sprague-Dawley rat hepatocytes assessed as increase in cytochrome C release at 20 uM in presence of BHT by ELISA. The format is functional, cell-based.
The species named for data set [8] is Rattus norvegicus. Put plainly: Induction of ROS production in HCC model Sprague-Dawley rat hepatocyte mitochondria at 10 to 40 uM incubated upto 60 mins by DCFH probe based fluorescence spectrophotometer. The data set is classed as functional.
Data set [9] in a line: Induction of mitochondrial swelling in Sprague-Dawley rat hepatocyte at 10 to 40 uM. Particulars: hepatocytes.
Data set [10] has as its system Hepatocyte. Description: Induction of apoptosis in isolated HCC model Sprague-Dawley rat hepatocytes assessed as increase in cytochrome C release at 20 uM by ELISA relative to control. The data set is classed as functional. (In an ELISA, binding on a coated surface is turned into a signal by an enzyme label.)
The species entered for data set [11] is Rattus norvegicus. Description: Induction of mitochondrial membrane potential disruption in HCC model Sprague-Dawley rat hepatocyte assessed as collapsed mitochondrial membrane potential at 10 to 40 uM incubated upto 60 mins by Rhodamine 123 probe based fluorescence spectrophotometry. The format is functional.
Data set [12] has as its target Succinate dehydrogenase [ubiquinone] flavoprotein subunit, mitochondrial (Rattus norvegicus) (UniProt Q920L2). Put plainly: Inhibition of SDH in HCC model Sprague-Dawley rat hepatocyte mitochondria at 10 to 40 uM incubated for 40 mins by MTT assay.

Data on one compound can be found in ChEMBL document CHEMBL4359935, “Selective toxicity of chrysin on mitochondria isolated from liver of a HCC rat model” (Bioorg Med Chem, 2019).

Molecules are shown by their SMILES. Calls of active or inactive are those of the source. The calls are words filed in the database; no cut-off is given here.

Succinate dehydrogenase [ubiquinone] flavoprotein subunit, mitochondrial (Rattus norvegicus), sequence (Q920L2 whole entry): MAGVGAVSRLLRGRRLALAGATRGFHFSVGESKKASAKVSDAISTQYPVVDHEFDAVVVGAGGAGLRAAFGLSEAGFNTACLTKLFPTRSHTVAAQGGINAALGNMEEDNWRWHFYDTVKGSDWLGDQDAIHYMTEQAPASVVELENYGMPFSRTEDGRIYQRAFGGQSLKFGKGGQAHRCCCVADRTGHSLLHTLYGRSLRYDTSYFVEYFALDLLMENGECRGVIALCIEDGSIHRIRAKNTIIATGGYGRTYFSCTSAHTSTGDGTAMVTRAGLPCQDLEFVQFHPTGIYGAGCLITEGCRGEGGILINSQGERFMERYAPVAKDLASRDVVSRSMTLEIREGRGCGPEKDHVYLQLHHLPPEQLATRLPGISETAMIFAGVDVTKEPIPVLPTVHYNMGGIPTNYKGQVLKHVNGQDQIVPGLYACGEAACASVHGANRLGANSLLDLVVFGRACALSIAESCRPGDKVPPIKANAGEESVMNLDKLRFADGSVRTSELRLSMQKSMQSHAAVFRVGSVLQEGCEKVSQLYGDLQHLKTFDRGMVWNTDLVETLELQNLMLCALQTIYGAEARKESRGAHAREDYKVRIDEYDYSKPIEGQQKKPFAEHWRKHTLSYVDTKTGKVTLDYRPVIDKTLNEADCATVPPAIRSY

For `O=c1cc(-c2ccccc2)oc2cc(O)cc(O)c12` [CHRYSIN], the Activity result in [1], in data set [2], in data set [3] and in data set [9] was “Non-Toxic” each time. Moreover, the “fold change (FC)” value with Hepatocyte [4] is 2.4; in the data set on Hepatocyte [10], 1.6. Moreover, the outcome in the data set listed under Rattus norvegicus [5], in the data set filed under Rattus norvegicus [8] and in the data set listed under Rattus norvegicus [11] was Active. The outcome in the data set with Hepatocyte [6] and in the data set on Hepatocyte [7] was inactive. In data set [12], the inhibition result was “Active”.
